Test results published in the supplement of paper PMC10307832.

What was measured:
Assay in all cases: relative viability (nuclei count vs DMSO), 5 days (fraction); higher = more cells survive
[1] = compound: C[C@@H](N)c1ccc(C(=O)Nc2ccnc3[nH]ccc23)cc1 + Cc1cc(Nc2cc(N3CCN(C)CC3)nc(Sc3ccc(NC(=O)C4CC4)cc3)n2)n[nH]1 [Tozasertib] (partner 0.1 µM)
Summary of the method: (§1)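 Relative viability is defined as nuclei in treated wells over nuclei in vehicle wells. Duplicate plates were run and medians reported. Lung cancer cell lines in 1536-well plates were dosed by pin tool one day after seeding, with one drug or with a fixed anchor-drug dose plus five library-drug doses (not always all listed) in √10 steps, and nuclei were counted after 5 days.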

Tanzisertib + AZD7762 = compound: O[C@H]1CC[C@H](Nc2ncc3nc(Nc4c(F)cc(F)cc4F)n([C@H]4CCOC4)c3n2)CC1 [Tanzisertib] + NC(=O)Nc1cc(-c2cccc(F)c2)sc1C(=O)N[C@H]1CCCNC1 [AZD7762] (partner 0.2 µM)
Summary of the method: as §1

[2] = compound: C[C@@H](N)c1ccc(C(=O)Nc2ccnc3[nH]ccc23)cc1 + CCNC(=O)c1noc(-c2cc(C(C)C)c(O)cc2O)c1-c1ccc(CN2CCOCC2)cc1 [Luminespib] (partner 0.01 µM)
Summary of the method: as §1

[3] = compound: C1CNCCC1C2=CC(=NN2)C3=CC=NC=C3 + Cc1cc(Nc2cc(N3CCN(C)CC3)nc(Sc3ccc(NC(=O)C4CC4)cc3)n2)n[nH]1 [Tozasertib] (partner 0.1 µM)
Summary of the method: as §1

Cell Line	relative viability ([1]; first compound 0.04 µM)	relative viability ([1]; first compound 0.1265 µM)	relative viability ([1]; first compound 0.4 µM)	relative viability ([1]; first compound 1.265 µM)	relative viability ([1]; first compound 4 µM)	relative viability (Tanzisertib + AZD7762; first compound 0.08 µM)	relative viability (Tanzisertib + AZD7762; first compound 0.253 µM)	relative viability (Tanzisertib + AZD7762; first compound 0.8 µM)	relative viability (Tanzisertib + AZD7762; first compound 2.53 µM)	relative viability (Tanzisertib + AZD7762; first compound 8 µM)	relative viability ([2]; first compound 0.04 µM)	relative viability ([2]; first compound 0.1265 µM)	relative viability ([2]; first compound 0.4 µM)	relative viability ([2]; first compound 1.265 µM)	relative viability ([2]; first compound 4 µM)	relative viability ([3]; first compound 0.08 µM)	relative viability ([3]; first compound 0.8 µM)	relative viability ([3]; first compound 2.53 µM)	relative viability ([3]; first compound 8 µM)
NCI-H1355	0.605	0.552	0.562	0.565	0.555	0.847	0.822	0.813	0.71	0.708	0.759	0.72	0.807	0.66	0.625	0.556	0.595	0.57	0.622
EKVX	0.421	0.379	0.494	0.44	0.438	0.68	0.795	0.612	0.65	0.535	0.943	0.987	1.08	0.879	0.942	0.396	0.303	0.491	0.401
NCI-H441	0.742	0.716	0.65	–	0.627	1.21	0.989	1.07	1.11	1.08	0.451	0.342	0.326	–	0.403	0.532	0.613	0.727	0.73
NCI-H1975	0.8	0.712	0.729	0.696	0.642	0.697	0.794	0.752	0.653	0.54	0.211	0.26	0.114	0.181	0.146	0.885	0.759	0.725	0.724
HCC-78	0.51	0.405	0.733	0.415	0.633	0.694	0.723	0.634	0.474	0.5	–	–	–	–	–	0.439	0.325	0.459	0.392
NCI-H2085	0.865	0.772	0.694	–	0.722	–	0.974	1.02	0.981	1.02	0.453	0.41	0.405	0.386	0.38	0.934	–	0.847	0.832
H3255	0.568	0.632	0.779	0.824	0.613	0.95	0.932	1	0.791	0.554	0.778	1.04	1	0.763	0.944	0.709	0.795	0.806	0.606
NCI-H2087	0.324	0.235	0.274	–	0.181	1.48	1.07	1.33	1.41	1.26	0.152	0.153	0.126	–	0.174	0.267	0.231	0.226	0.202
LC-2-ad	0.469	0.523	0.512	–	0.441	0.839	0.898	0.867	0.833	0.676	0.864	0.987	0.837	–	0.659	–	0.445	0.485	0.467
PC-3 [JPC-3]	0.892	0.839	0.955	0.967	0.816	0.81	0.937	0.844	0.733	0.679	0.714	0.68	0.73	0.846	0.607	0.832	0.914	0.889	0.853
HCC-15	0.519	0.332	0.507	–	0.657	1.23	1.25	1.22	1.13	1	0.391	0.329	0.291	–	0.153	0.517	0.372	0.484	0.355
NCI-H1563	–	–	–	–	–	–	–	–	–	–	0.514	0.484	0.499	0.508	0.514	–	–	–	–
COR-L 105	0.359	0.355	0.349	0.296	0.177	–	–	–	–	–	0.733	0.635	0.596	0.559	0.346	0.348	0.311	0.348	0.349
NCI-H520	0.52	0.462	0.448	0.535	0.424	–	–	–	–	–	0.192	0.188	0.24	0.218	0.213	0.395	0.378	0.457	0.457
LU99A	–	0.278	0.234	0.227	0.227	0.299	0.42	0.431	0.322	0.407	–	0.303	0.323	0.251	0.292	0.307	0.267	0.278	0.304
NCI-H1666	0.605	0.618	0.63	0.698	0.593	0.939	0.905	0.848	0.9	0.684	1.02	1.03	1.13	1.4	1.16	0.59	0.7	0.693	0.755
NCI-H2170	0.719	0.663	0.784	0.699	0.636	1.09	0.897	0.791	1.02	0.676	0.735	0.708	0.623	0.649	0.502	0.667	0.621	0.775	0.681

Cell Line	relative viability ([1]; first compound 0.04 µM)	relative viability ([1]; first compound 0.1265 µM)	relative viability ([1]; first compound 0.4 µM)	relative viability ([1]; first compound 1.265 µM)	relative viability ([1]; first compound 4 µM)	relative viability (Tanzisertib + AZD7762; first compound 0.08 µM)	relative viability (Tanzisertib + AZD7762; first compound 0.253 µM)	relative viability (Tanzisertib + AZD7762; first compound 0.8 µM)	relative viability (Tanzisertib + AZD7762; first compound 2.53 µM)	relative viability (Tanzisertib + AZD7762; first compound 8 µM)	relative viability ([2]; first compound 0.04 µM)	relative viability ([2]; first compound 0.1265 µM)	relative viability ([2]; first compound 0.4 µM)	relative viability ([2]; first compound 1.265 µM)	relative viability ([2]; first compound 4 µM)	relative viability ([3]; first compound 0.08 µM)	relative viability ([3]; first compound 0.8 µM)	relative viability ([3]; first compound 2.53 µM)	relative viability ([3]; first compound 8 µM)
NCI-H522	0.591	0.476	0.512	0.509	0.55	1.1	0.891	0.839	0.955	0.886	1.34	1.06	1.59	1.02	0.885	0.519	0.518	0.587	0.562
LCLC-97TM1	0.208	0.227	0.34	0.343	0.279	0.302	0.334	0.207	0.264	0.151	0.828	0.826	1.06	0.908	0.857	0.225	0.177	0.256	0.293
NCI-H3122	0.397	0.357	0.497	–	0.468	1.13	1.03	1.03	0.981	0.993	0.0997	0.0955	0.113	0.162	0.124	0.366	0.416	0.408	0.417
NCI-H2009	0.736	0.704	0.643	0.623	0.544	–	–	–	–	–	0.966	0.957	0.952	0.836	0.815	0.713	0.74	0.689	0.696
NCI-H1703	–	–	–	–	–	0.146	0.13	0.118	0.135	0.113	–	–	–	–	–	–	–	–	–
NCI-H1650	0.386	0.483	0.394	0.291	0.37	–	–	–	–	–	0.2	0.191	0.177	0.17	0.195	0.393	0.446	0.433	0.392
NCI-H1792	–	–	–	–	–	0.842	0.693	0.742	0.697	0.523	0.407	–	0.568	0.45	0.448	–	–	–	–
COR-L23	0.232	0.188	0.204	0.202	0.144	–	–	–	–	–	0.788	0.804	0.644	0.437	0.161	0.222	0.201	0.229	0.172
NCI-H1623	0.443	0.452	0.459	0.475	0.462	–	–	–	–	–	0.657	0.494	0.563	0.491	0.591	0.434	0.446	0.439	0.454
NCI-H2228	0.252	0.315	0.267	0.299	0.228	–	–	–	–	–	0.069	0.147	0.116	0.122	0.178	0.28	0.191	0.274	0.309
NCI-H661	0.286	0.355	0.378	0.34	0.363	–	–	–	–	–	0.921	0.923	0.873	0.781	0.811	0.38	0.367	0.356	0.345
HCC-366	0.141	0.169	0.132	–	0.229	–	0.316	0.277	0.192	0.286	–	–	–	–	–	0.214	0.137	0.182	0.123
SK-LU-1	0.34	0.333	0.372	0.289	0.311	–	–	–	–	–	0.229	0.208	0.187	0.176	0.163	0.321	0.367	0.391	0.334
SW 1573	0.121	0.208	0.174	0.174	0.156	–	–	–	–	–	0.311	0.37	0.212	0.304	0.249	–	0.202	0.174	0.148
NCI-H1648	0.655	0.513	0.984	1.02	0.957	0.683	0.629	0.73	0.676	0.595	–	–	–	–	–	0.425	0.475	0.461	0.508
NCI-H2023	0.426	0.377	0.395	0.462	0.279	–	–	–	–	–	1	0.881	0.832	0.689	0.543	0.351	0.3	0.482	0.256
SK-MES-1	0.881	0.921	0.854	0.825	0.629	–	–	–	–	–	0.834	0.796	0.752	0.585	0.714	0.783	1	0.981	0.834
